Patent US9364459B2, “3-(indolyl)- or 3-(azaindolyl)- 4-arylmaleimide derivatives for use in the treatment of colon and gastric adenocarcinoma” (Johannes Gutenberg-Universität Mainz, priority 2009, dated 2016)
Each block holds one molecule with its values, some of them ahead of it.

Assays:
[1] = target: VEGFR-2 (Homo sapiens (Human), UniProt P35968); assay: VEGFR-2 kinase inhibition assay (Millipore IC50Profiler); assay type: biochemical
From the text: GSK-3β, VEGFR-2, FLT-3 Kinase Inhibition Assays
Detailed protocols can be found at: www.millipore.com/drugdiscovery/dd3/assayprotocols.

[2] = test system: chick embryo microvessel formation; assay: Quantitative chick embryo in vivo assay of antiangiogenic activity; conditions: Gallus gallus; 26 nM drug concentration/pellet; 24 hours incubation; read-out: Inhibition of microvessel area
Protocol: Evaluation of Antiangiogenic Activity in a Quantitative Chick Embryo In Vivo Assay
The inhibition of angiogenesis (new blood vessel formation) was measured as described in WO2006/061212.

[3] = test system: HT-29; assay: Nicoletti apoptosis assay in HT-29 cells; assay type: cell-based, human; conditions: for Sub-G1 Fraction / Induction of apoptosis under irinotecan single application (Sub-G1 Fraction): HT-29
Protocol: (§1) Nicoletti Apoptosis Assay by Cell Cycle Analysis
(§2) Cancer cells were transferred to 12-well flat-bottomed plates. […] Subsequently, cells were incubated in 1 ml medium containing various concentrations of test compounds at 37° C. with 5% CO2. After incubation the cells were washed with PBS, trypsinized, pelleted and mixed with PI buffer (containing 0.1% sodium citrate, 0.1% triton X-100, […] propidium iodide (PI)) and incubated for 1 hour at 4° C. Cell cycle sub-G1 fraction analysis was performed as described previously (Nicoletti, I. et al. (1991) J. Immunol. Methods 139, 271-279) using a flow cytometer (BD FACS Calibur™, BD Biosciences, Heidelberg, Germany). Each experiment was done in triplicate.

[4] = test system: HT-29 human colon adenocarcinoma cells; assay: MTT viability assay in HT-29 cells; conditions: HT-29, 72 h, read-out: Viability of HT-29 cells as determined by MTT assay
Protocol: Evaluation of Effect on Viability (MTT Assay)
The antiproliferative activity of test compounds was determined by the 3-(4,5-dimethylthiazol-2-yl)-2,5-diphenyltetrazolium bromide (MTT) assay as described previously (Mosmann, T. et al. (1983) J. Immunol. Methods 65, 55-63). Cells in the exponential growth phase were transferred to 96-well flat-bottom plates. 10,000 viable cells contained in 200 μl cell suspension were plated into each well and incubated over night. Cells were then exposed to various concentrations of test compounds (100 μl/well) for 3 days at 37° C. with 5% CO2. Subsequently, 10 μl/well MTT stock solution (5 mg/ml; Biomol, Germany) was added and the cells were incubated at 37° C. with 5% CO2 for 4 hours. 100 μl solubilization solution (10% SDS in 0.01 M HCl) was added and the cells were incubated at 37° C. with 5% CO2 over night. Plates were read on an ELISA-Reader ELX 800 (BIO-TEK Software KC 4) at 562 nm absorbance. Each experiment was done in triplicate.
HCT-116, HT-29 and SW480 cells were cultured in RPMI1640 supplemented with 10% FCS. […] All cells were maintained at 37° C. and 5% CO2.

[5] = test system: HUVEC; assay: Nicoletti apoptosis assay (sub-G1 fraction) in HUVEC; assay type: cell-based, human; conditions: 4 days, untreated 15.4 ± 1.5%
Protocol: as §1, §2
The same analysis was performed with HUVEC cells. 1.5×10^4 cells were plated into each well and treated with test compounds for 4 days.
Human Umbilical Vein Endothelial Cells (HUVEC) known for mitogenic specifity for VEGF were obtained from the Department of Pathology, University Hospital of Mainz, Germany. The cells were cultured in M199 supplemented with 20% FCS, 1% Pen/Strep, 0.34% GlutaMAX-I, 25 μg/ml Endothelial Cell Growth Supplement (BD Biosciences), 25 μg/ml Heparin sodium (179 USP units/mg; Sigma, Germany) and were maintained at 37° C. and 5% CO2.

[6] = test system: Caco-2; assay: Nicoletti apoptosis assay in Caco-2 cells; assay type: cell-based, human
Protocol: as §1, §2

[7] = test system: MKN-45; assay: Nicoletti apoptosis assay in MKN-45 cells; assay type: cell-based, human
Protocol: as §1, §2

[8] = test system: HCT-116; assay: Nicoletti apoptosis assay in HCT-116 cells; assay type: cell-based, human; conditions: Table 6, 1.18 μM irinotecan alone
Protocol: as §1, §2

[9] = test system: SW480; assay: Nicoletti apoptosis assay in SW480 cells; assay type: cell-based, human
Protocol: as §1, §2

[10] = Table 6, 1.18 μM irinotecan alone

VEGFR-2, sequence (P35968 20-1356): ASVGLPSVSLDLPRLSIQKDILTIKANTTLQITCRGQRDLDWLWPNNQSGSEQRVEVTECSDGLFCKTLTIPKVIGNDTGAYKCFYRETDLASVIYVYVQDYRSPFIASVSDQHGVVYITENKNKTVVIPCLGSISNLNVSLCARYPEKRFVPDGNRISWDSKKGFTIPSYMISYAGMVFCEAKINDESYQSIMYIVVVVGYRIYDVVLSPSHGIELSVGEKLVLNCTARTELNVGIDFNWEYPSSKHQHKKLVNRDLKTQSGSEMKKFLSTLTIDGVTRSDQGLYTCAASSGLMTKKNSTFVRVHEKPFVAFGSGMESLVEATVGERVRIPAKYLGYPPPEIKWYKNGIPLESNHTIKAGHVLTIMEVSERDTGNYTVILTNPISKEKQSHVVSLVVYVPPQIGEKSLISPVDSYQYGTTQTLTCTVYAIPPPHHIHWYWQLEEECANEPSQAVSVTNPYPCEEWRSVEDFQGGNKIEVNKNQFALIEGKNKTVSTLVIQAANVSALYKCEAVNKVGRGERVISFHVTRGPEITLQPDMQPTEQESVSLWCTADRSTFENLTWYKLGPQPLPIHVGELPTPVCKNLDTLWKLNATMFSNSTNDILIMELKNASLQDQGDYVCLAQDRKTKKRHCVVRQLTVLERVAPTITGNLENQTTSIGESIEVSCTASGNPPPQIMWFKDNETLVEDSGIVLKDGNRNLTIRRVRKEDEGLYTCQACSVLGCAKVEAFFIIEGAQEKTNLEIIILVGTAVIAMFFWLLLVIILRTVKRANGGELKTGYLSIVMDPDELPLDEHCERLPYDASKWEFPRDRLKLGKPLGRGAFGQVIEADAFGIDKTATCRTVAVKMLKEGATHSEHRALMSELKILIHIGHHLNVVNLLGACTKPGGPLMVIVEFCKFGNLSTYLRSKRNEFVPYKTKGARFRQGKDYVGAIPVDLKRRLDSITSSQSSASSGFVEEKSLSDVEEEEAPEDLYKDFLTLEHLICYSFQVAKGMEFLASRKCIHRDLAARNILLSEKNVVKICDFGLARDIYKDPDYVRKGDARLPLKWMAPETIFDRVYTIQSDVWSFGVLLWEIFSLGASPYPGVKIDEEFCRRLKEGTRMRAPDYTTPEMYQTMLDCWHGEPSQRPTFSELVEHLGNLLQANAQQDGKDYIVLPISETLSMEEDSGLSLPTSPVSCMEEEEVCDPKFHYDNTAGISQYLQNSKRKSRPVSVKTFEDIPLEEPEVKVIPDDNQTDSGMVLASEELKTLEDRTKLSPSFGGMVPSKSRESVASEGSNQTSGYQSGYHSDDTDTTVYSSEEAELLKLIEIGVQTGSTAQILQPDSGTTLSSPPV

- IC50 [1]: 182 nM
- melting point: 232 to 233 °C
SMILES: COc1cc(C2=C(c3c[nH]c4ccc(F)cc34)C(=O)NC2=O)cc(OC)c1OC [O, 3-(5-Fluoro-1H-indol-3-yl)-4-(3,4,5-trimethoxyphenyl)-maleinimide]
- inhibition at 0.026 µM [2]: 63%
- Activity in combination with irinotecan relative to compound A, in words ([3]; HT-29 cells, combination with irinotecan): at least comparable with compound A
- Sub-G1 Fraction ([3]; Table 8, 7.9 μM test compound alone, drug-free control 3.4 ± 0.9%): 3.26 ± 2.14%
- Sub-G1 Fraction ([3]; Table 8, 7.9 μM test compound plus 1.18 μM irinotecan): 49.69 ± 2.96%
- viability at 2.6 µM [4]: 47.83 ± 0.34%
- viability at 7.9 µM [4]: 35.5 ± 0.71%
- viability at 26 µM [4]: 42.1 ± 0.58%
- viability at 52 µM [4]: 17.6 ± 1.81%
- Sub-G1 Fraction ([5]; 0.79 μM): 16.0 ± 1.2%
- Sub-G1 Fraction ([5]; 2.6 μM): 73.3 ± 3.2%
- Sub-G1 Fraction ([5]; 7.9 μM): 90.6 ± 5.4%

SMILES: CCc1c2c(nc3ccc(OC(=O)N4CCC(N5CCCCC5)CC4)cc13)-c1cc3c(c(=O)n1C2)COC(=O)[C@]3(O)CC [irinotecan, reference compound]
- Sub-G1 Fraction [6, 10]: 18.80 ± 0.8%
- Sub-G1 Fraction [7, 10]: 28.97 ± 1.15%
- Sub-G1 Fraction [8]: 9.86 ± 2.4%
- Sub-G1 Fraction [3, 10]: 17.40 ± 0.98%
- Induction of apoptosis under irinotecan single application (Sub-G1 Fraction) ([3]; Table 8): Induction of apoptosis under irinotecan single application 18.3 ± 1.1%
- Induction of apoptosis under irinotecan single application (Sub-G1 Fraction) ([3]; Table 9): Induction of apoptosis under irinotecan single application 17.4 ± 0.6%
- Sub-G1 Fraction [9, 10]: 9.61 ± 0.91%

SMILES: CC[C@@]1(O)C(=O)OCc2c1cc1n(c2=O)Cc2cc3c(CN(C)C)c(O)ccc3nc2-1 [topotecan, reference compound]
- Sub-G1 Fraction ([6]; Table 7, 20 nM topotecan alone): 31.5 ± 0.08%
- Sub-G1 Fraction ([7]; Table 7, 20 nM topotecan alone): 26.15 ± 0.49%
- Sub-G1 Fraction ([3]; Table 7, 20 nM topotecan alone): 7.9 ± 0.8%
- Sub-G1 Fraction ([9]; Table 7, 20 nM topotecan alone): 13.34 ± 0.3%
